We go through one compound from patent US10278971B2, “Fluorocyclopentenylcytosine methods of use” (Rexahn Pharmaceuticals, Inc., priority 2015, dated 2019).

Common to all, as to format: cell-based, human
Assay [1] deals with SW1573/G-. Description: Cell cycle distribution by flow cytometry (PI). The procedure: (§1) The effect of RX-3117 on cell cycle regulation and cell death in human non-small cell lung cancer (NSCLC) cell lines A549 (adenocarcinoma), SW1573 (alveolar carcinoma) and SW1573/G- (SW1573 cell line resistant to gemcitabine) and H460 (large cell carcinoma) was assessed. The A549 and H460 cell lines were obtained from American Type Culture Collection (Manassas, Va., USA). The SW1573 cell line, obtained from Dr. Johan van Rijn (see Keiser et al., Cancer Research, 49:2988-2993 (1989)), also served as the parental cell line for SW1573/G-. A549, SW1573, and SW1573/G- and H460 were kept in exponential growth in T25 flasks (Greiner Bio-One GmbH, Frickenhausen, Germany) and cultured in Dulbecco's minimal essential medium (DMEM) or RPMI 1640 (A549) supplemented with 10% heat-inactivated fetal bovine serum (FBS) 1% streptomycin and penicillin 20 mM HEPES and maintained in 37° C. water saturated atmospheres of 5% CO2. […] The cells stained with the PI solution were analyzed by FACSCalibur™ (BD Biosciences, Mount View, Calif., USA). Data was analyzed with CellQuest™ Pro software.
Cell cycle distribution and apoptosis were analyzed by plating cells in flat bottom 6 well plates (Greiner Bio-One GmbH, Frickenhausen, Germany) at the density of 5,000 cells and allowed to attach for 24 h. […] Subsequently, samples were analyzed using FACSCalibur (BD Biosciences, Mount View, Calif., USA). […]

The subject of assay [2] is DNMT1. Description: DNMT enzyme activity in isolated nuclei (DNA methyltransferase assay kit). The conditions noted are these: A2780 nuclear extracts, 1 μM, 24 hr. As for the experimental part:
DNMT1 protein expression was measured by Western Blotting after exposure to RX-3117 for 24 or 48 hr. DNMT1 RNA expression was measured by real-time PCR after 24 and 48 hr exposure to RX-3117. DNMT enzyme activity was measured in isolated nuclei after exposure 1 μM RX-3117 or 5 μM aza-CdR using a DNA methyltransferase assay kit provided by EpiGentek using the ability of a CpG dinding domain to bind to methylated DNA. In A549 cells the effect of 5 μM RX-3117 on overall methylation was measured with a specific antibody against 5-methyl-cytosine. Bands on Western blots were visualized using appropriate InfraRedDye using an Odyssey InfraRed imager.

Assay [3] has as its system SW1573 spheroids. Description: Spheroid assay, radiosensitizing effect. The conditions noted are these: SW1573 spheres. As for the experimental part:
(§2) The NSCLC cell lines A549 and SW1573 were plated in low attachment 24 well plates (Corning Incorporated, Corning, N.Y.) at a density of 100,000 cells/well and allowed to form spheroids. After three days, single spheroids were transferred to new 24 well low attachment plates (one spheroid/well). Immediately after transfer treatment was started, for A549 and SW1573 cells 1 μM RX-3117 was combined with fractionated 2 Gy irradiation (5 days single 2 Gy dose). Pictures were taken on day 0 (before irradiation) and after 3, 6, 9, and 15 days using a phase contrast microscope (LeicaDMI300B Universal Grab 6.3 software, Digital Cell Imaging Labs). The measurements were taken by ImageJ software (ImageJ 1.45s, Wayne Rasband, National Institutes of Health, Bethesda, Md.) for spheroid volume calculation (V=4/3π(D/2)^3) as described earlier by Galvani et al. (Galvani E, Giovannetti E, Saccani F, Cavazzoni A, Leon L G, Dekker H, Alfieri R, Carmi C, Mor M, Ardizzoni A, Petronini P G and Peters G J: Molecular mechanisms underlying the antitumor activity of 3-aminopropanamide irreversible inhibitors of the epidermal growth factor receptor in non-small cell lung cancer. Neoplasia 15: 61-72, 2013).

Assay [4] relates to A549 spheroids. Description: Spheroid assay, radiosensitizing effect. The procedure:
as §2

The subject of assay [5] is H460. Description: Cell cycle distribution by flow cytometry (PI). As to conditions: H460, 1 μM, 24 hour exposure. The procedure: as §1, with “CO2. For the cell cycle distribution, 1.5×10^5 cells were seeded in a T25 flask (Greiner Bio-One GmbH) and cultured for 72 hours after which 1 μM of RX-3117 was added and incubated for 24 hours. The cells were then harvested. After the treatment, the medium was collected in a 15 ml tube (Greiner Bio-One GmbH).” for “CO2.”
In general terms: Flow cytometry measures light scatter and fluorescence of single cells or particles in a stream.

Structures are written as SMILES.

Regarding `Nc1ccn([C@@H]2C(F)=C(CO)[C@@H](O)[C@H]2O)c(=O)n1` [RX-3117, 4-amino-1-((1S,4R,5S)-2-fluoro-4,5-dihydroxy-3-hydroxymethyl-cyclopent-2-enyl)-1H-pyrimidin-2-one], the “accumulation of cells in the G1 phase” value in assay [1] (1 μM, 24 hour exposure) is “induced accumulation”. Moreover, the “accumulation of cells in the S-phase” value in assay [1] (5×IC50, 24 and 48 hours) is “induced the accumulation”. Besides, the “inhibition of DNMT1 activity” value in assay [2] was found to be 32%. In assay [3] (1 μM plus 2 Gy 5 days), the “spheroid volume, combination with radiotherapy” value is “the effect was enhanced with the combination”. Further, the “spheroid volume, RX-3117 alone” value in assay [3] (1 μM, 15 days) was “highly affected”. In assay [4] (A549, 1 μM plus 5 days irradiation with 2 Gy), the “spheroid volume growth, combination with irradiation” value is “enhanced the effect”. Besides, the “spheroid volume growth, RX-3117 alone” value in assay [4] (A549, 1 μM, 15 days) is on record as “only a small effect”. Moreover, in assay [5], the “accumulation of cells in the G1 phase” value is reported as “induced accumulation” and the “increased accumulation of cells in the G1 phase” value is 20-40%.
